Measurements published in PubChem BioAssay (NCI).
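Dose response: 5 concentrations. Exposure: 48 h. Format: 96-well plates. Endpoint: linear interpolation; highest concentration if not reached. TGI: concentration producing complete growth inhibition.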

Experiments:
Assay in all cases: NCI tumour cell line growth inhibition, 48 h
[1] = test system: 786-0 renal
[2] = test system: A498 renal
[3] = test system: A549 NSCLC
[4] = test system: ACHN renal
[5] = test system: BT-549 breast
[6] = test system: CAKI-1 renal
[7] = test system: COLO 205 colon
[8] = test system: DU-145 prostate
[9] = test system: EKVX NSCLC
[10] = test system: HCT-116 colon
[11] = test system: HCT-15 colon
[12] = test system: HOP-62 NSCLC
[13] = test system: HOP-92 NSCLC
[14] = test system: HT29 colon
[15] = test system: IGROV1 ovarian
[16] = test system: K-562 leukemia
[17] = test system: KM12 colon
[18] = test system: LOX IMVI melanoma
[19] = test system: M14 melanoma
[20] = test system: MALME-3M melanoma
[21] = test system: MDA-MB-231 breast
[22] = test system: MDA-MB-435
[23] = test system: MDA-N
[24] = test system: MOLT-4 leukemia
[25] = test system: NCI-H226 lung
[26] = test system: NCI-H23 lung
[27] = test system: NCI-H460 lung
[28] = test system: NCI-H522 lung
[29] = test system: NCI/ADR-RES ovarian
[30] = test system: OVCAR-3 ovarian
[31] = test system: OVCAR-4 ovarian
[32] = test system: OVCAR-5 ovarian
[33] = test system: OVCAR-8 ovarian
[34] = test system: RPMI-8226 leukemia
[35] = test system: RXF 393 renal
[36] = test system: SF-268 CNS
[37] = test system: SF-295 CNS
[38] = test system: SF-539 CNS
[39] = test system: SK-MEL-28 melanoma
[40] = test system: SK-MEL-5 melanoma
[41] = test system: SK-OV-3 ovarian
[42] = test system: SN12C renal
[43] = test system: SNB-19 CNS
[44] = test system: SNB-75 CNS
[45] = test system: SW-620 colon
[46] = test system: T-47D breast
[47] = test system: TK-10 renal
[48] = test system: U251 CNS
[49] = test system: UACC-257 melanoma
[50] = test system: UO-31 renal
[51] = test system: CCRF-CEM leukemia
[52] = test system: HCC-2998 colon
[53] = test system: HL-60(TB) leukemia
[54] = test system: HS 578T breast
[55] = test system: MCF7 breast
[56] = test system: PC-3 prostate
[57] = test system: SK-MEL-2 melanoma
[58] = test system: SR leukemia
[59] = test system: UACC-62 melanoma

## N#CC(c1cc(Cl)ncn1)c1nc2ccccc2s1 (configuration not stated)
[1]
  TGI: 29.5 µM
[2]
  TGI: 68.6 µM
[3]
  TGI: > 100 µM
[4]
  TGI: 68.7 µM
[5]
  TGI: 15.2 µM
[6]
  TGI: 82.1 µM
[7]
  TGI: 57.6 µM
[8]
  TGI: 24.2 µM
[9]
  TGI: 58.1 µM
[10]
  TGI: 22.7 µM
[11]
  TGI: 15.6 µM
[12]
  TGI: 43.8 µM
[13]
  TGI: 11.1 µM
[14]
  TGI: 23.6 µM
[15]
  TGI: 22 µM
[16]
  TGI: > 100 µM
[17]
  TGI: > 100 µM
[18]
  TGI: 15.8 µM
[19]
  TGI: 33.6 µM
[20]
  TGI: 24.6 µM
[21]
  TGI: 60.4 µM
[22]
  TGI: 62 µM
[23]
  TGI: 24.1 µM
[24]
  TGI: > 100 µM
[25]
  TGI: > 100 µM
[26]
  TGI: 19.5 µM
[27]
  TGI: > 100 µM
[28]
  TGI: 4.47 µM
[29]
  TGI: 15.2 µM
[30]
  TGI: 22.8 µM
[31]
  TGI: 91 µM
[32]
  TGI: 59.3 µM
[33]
  TGI: 12.5 µM
[34]
  TGI: > 100 µM
[35]
  TGI: 42.5 µM
[36]
  TGI: 18.3 µM
[37]
  TGI: 43.7 µM
[38]
  TGI: 50.5 µM
[39]
  TGI: 42.9 µM
[40]
  TGI: 33.1 µM
[41]
  TGI: 28.8 µM
[42]
  TGI: 7.49 µM
[43]
  TGI: 20.3 µM
[44]
  TGI: 28.1 µM
[45]
  TGI: 22 µM
[46]
  TGI: > 100 µM
[47]
  TGI: > 100 µM
[48]
  TGI: 18.2 µM
[49]
  TGI: 32.2 µM
[50]
  TGI: > 100 µM

## CC(=O)O[C@H]1[C@@H](N2CCN(C)CC2)C[C@H]2[C@@H]3CC=C4C[C@@H](N5CCCC5)CC[C@]4(C)[C@H]3CC[C@@]21C
[1]
  TGI: > 100 µM
[2]
  TGI: > 100 µM
[3]
  TGI: > 100 µM
[4]
  TGI: > 100 µM
[5]
  TGI: > 100 µM
[6]
  TGI: > 100 µM
[51]
  TGI: > 100 µM
[7]
  TGI: > 100 µM
[9]
  TGI: > 100 µM
[52]
  TGI: > 100 µM
[10]
  TGI: > 100 µM
[11]
  TGI: > 100 µM
[53]
  TGI: 30.1 µM
[12]
  TGI: > 100 µM
[13]
  TGI: > 100 µM
[54]
  TGI: > 100 µM
[14]
  TGI: > 100 µM
[15]
  TGI: > 100 µM
[16]
  TGI: 33 µM
[17]
  TGI: > 100 µM
[18]
  TGI: 39.4 µM
[19]
  TGI: 34.5 µM
[20]
  TGI: 51 µM
[55]
  TGI: > 100 µM
[21]
  TGI: > 100 µM
[22]
  TGI: > 100 µM
[23]
  TGI: > 100 µM
[24]
  TGI: > 100 µM
[25]
  TGI: > 100 µM
[26]
  TGI: > 100 µM
[27]
  TGI: > 100 µM
[28]
  TGI: > 100 µM
[29]
  TGI: > 100 µM
[30]
  TGI: > 100 µM
[31]
  TGI: > 100 µM
[32]
  TGI: > 100 µM
[33]
  TGI: > 100 µM
[56]
  TGI: > 100 µM
[34]
  TGI: 44.2 µM
[35]
  TGI: 71.8 µM
[36]
  TGI: > 100 µM
[37]
  TGI: 53.5 µM
[38]
  TGI: 29.3 µM
[57]
  TGI: > 100 µM
[39]
  TGI: 96.9 µM
[40]
  TGI: 73 µM
[41]
  TGI: > 100 µM
[42]
  TGI: > 100 µM
[43]
  TGI: > 100 µM
[44]
  TGI: > 100 µM
[58]
  TGI: 5.52 µM
[45]
  TGI: > 100 µM
[46]
  TGI: > 100 µM
[47]
  TGI: > 100 µM
[48]
  TGI: > 100 µM
[49]
  TGI: 49.4 µM
[59]
  TGI: > 100 µM
[50]
  TGI: > 100 µM

## CCn1cnc2c(NC(C)=O)ncnc21
[1]
  TGI: > 100 µM
[3]
  TGI: > 100 µM
[4]
  TGI: > 100 µM
[5]
  TGI: > 100 µM
[6]
  TGI: > 100 µM
[51]
  TGI: > 100 µM
[7]
  TGI: > 100 µM
[8]
  TGI: > 100 µM
[9]
  TGI: > 100 µM
[52]
  TGI: > 100 µM
[10]
  TGI: > 100 µM
[11]
  TGI: > 100 µM
[12]
  TGI: > 100 µM
[13]
  TGI: > 100 µM
[14]
  TGI: > 100 µM
[15]
  TGI: > 100 µM
[16]
  TGI: > 100 µM
[17]
  TGI: > 100 µM
[18]
  TGI: > 100 µM
[19]
  TGI: > 100 µM
[20]
  TGI: > 100 µM
[55]
  TGI: > 100 µM
[21]
  TGI: > 100 µM
[22]
  TGI: > 100 µM
[23]
  TGI: > 100 µM
[24]
  TGI: > 100 µM
[25]
  TGI: > 100 µM
[26]
  TGI: > 100 µM
[27]
  TGI: > 100 µM
[28]
  TGI: > 100 µM
[29]
  TGI: > 100 µM
[30]
  TGI: > 100 µM
[31]
  TGI: > 100 µM
[32]
  TGI: > 100 µM
[33]
  TGI: > 100 µM
[56]
  TGI: > 100 µM
[34]
  TGI: > 100 µM
[35]
  TGI: > 100 µM
[37]
  TGI: > 100 µM
[38]
  TGI: > 100 µM
[57]
  TGI: > 100 µM
[39]
  TGI: > 100 µM
[40]
  TGI: > 100 µM
[41]
  TGI: > 100 µM
[42]
  TGI: > 100 µM
[43]
  TGI: > 100 µM
[44]
  TGI: > 100 µM
[45]
  TGI: > 100 µM
[46]
  TGI: > 100 µM
[47]
  TGI: > 100 µM
[48]
  TGI: > 100 µM
[49]
  TGI: > 100 µM
[59]
  TGI: > 100 µM
[50]
  TGI: > 100 µM
